Laboratory results published in the kinase profiling compilation of Christmann-Franck et al. (2016).
pKd: −log10 of the molar value.

Assays:
Experiment in all cases: KINOMEscan competition binding
[1] = biological target: BMP2K (human) (UniProt Q9NSY1); conditions: for kinase still bound, per cent of control: compound 1.0 µM
[2] = biological target: BTK (human) (UniProt Q06187); conditions: compound 1.0 µM
[3] = biological target: CAMK4 (human) (UniProt Q16566); conditions: compound 1.0 µM
[4] = biological target: CDC42BPG (human) (UniProt Q6DT37); conditions: compound 1.0 µM
[5] = biological target: CDK13 (human) (UniProt Q14004); conditions: compound 1.0 µM
[6] = biological target: CDK18 (human) (UniProt Q07002); conditions: compound 1.0 µM
[7] = biological target: CLK4 (human) (UniProt Q9HAZ1); conditions: compound 1.0 µM
[8] = system: CPK1 (P.falciparum); conditions: compound 1.0 µM
[9] = biological target: CSF1R (human) (UniProt P07333); conditions: compound 1.0 µM
[10] = biological target: CaMK1 (human) (UniProt Q14012); conditions: compound 1.0 µM
[11] = biological target: DCLK2 (human) (UniProt Q8N568); conditions: compound 1.0 µM
[12] = biological target: DMPK (human) (UniProt Q09013); conditions: compound 1.0 µM
[13] = biological target: DSTYK (human) (UniProt Q6XUX3); conditions: compound 1.0 µM
[14] = system: EGFR (human), P00533 [A750P; 747-749 del]; conditions: compound 1.0 µM
[15] = biological target: ERBB3 (human) (UniProt P21860); conditions: compound 1.0 µM
[16] = biological target: FES (human) (UniProt P07332); conditions: compound 1.0 µM
[17] = biological target: HIPK2 (human) (UniProt Q9H2X6); conditions: compound 1.0 µM
[18] = biological target: ICK (human) (UniProt Q9UPZ9); conditions: for kinase still bound, per cent of control: compound 1.0 µM
[19] = biological target: ITK (human) (UniProt Q08881); conditions: compound 1.0 µM
[20] = biological target: LTK (human) (UniProt P29376); conditions: compound 1.0 µM
[21] = biological target: MAP2K4 (human) (UniProt P45985); conditions: compound 1.0 µM
[22] = biological target: MAPK10 (human) (UniProt P53779); conditions: compound 1.0 µM
[23] = biological target: MUSK (human) (UniProt O15146); conditions: compound 1.0 µM
[24] = biological target: MYO3A (human) (UniProt Q8NEV4); conditions: compound 1.0 µM
[25] = biological target: NEK1 (human) (UniProt Q96PY6); conditions: compound 1.0 µM
[26] = biological target: NEK9 (human) (UniProt Q8TD19); conditions: compound 1.0 µM
[27] = biological target: OXSR1 (human) (UniProt O95747); conditions: compound 1.0 µM
[28] = biological target: PIK3CG (human) (UniProt P48736); conditions: compound 1.0 µM
[29] = biological target: PIP5K1C (human) (UniProt O60331); conditions: compound 1.0 µM
[30] = biological target: PKMYT1 (human) (UniProt Q99640); conditions: compound 1.0 µM
[31] = biological target: PKN3 (M.tuberculosis) (UniProt Q6P5Z2); conditions: compound 1.0 µM
[32] = biological target: PLK1 (human) (UniProt P53350); conditions: compound 1.0 µM
[33] = biological target: PLK2 (human) (UniProt Q9NYY3); conditions: compound 1.0 µM
[34] = biological target: PRKACB (human) (UniProt P22694); conditions: compound 1.0 µM
[35] = biological target: RPS6KA2 KD2 (human) (UniProt Q15349); conditions: compound 1.0 µM
[36] = biological target: RPS6KA6 KD1 (human) (UniProt Q9UK32); conditions: compound 1.0 µM
[37] = biological target: SIK1 (human) (UniProt P57059); conditions: compound 1.0 µM
[38] = biological target: SRPK3 (human) (UniProt Q9UPE1); conditions: compound 1.0 µM
[39] = biological target: STK36 (human) (UniProt Q9NRP7); conditions: compound 1.0 µM
[40] = biological target: TGFBR1 (human) (UniProt P36897); conditions: compound 1.0 µM
[41] = biological target: TNK1 (human) (UniProt Q13470); conditions: compound 1.0 µM
[42] = biological target: TTK (human) (UniProt P33981); conditions: compound 1.0 µM
[43] = biological target: WEE2 (human) (UniProt P0C1S8); conditions: compound 1.0 µM

BMP2K (human), sequence (Q9NSY1 whole entry, looked up): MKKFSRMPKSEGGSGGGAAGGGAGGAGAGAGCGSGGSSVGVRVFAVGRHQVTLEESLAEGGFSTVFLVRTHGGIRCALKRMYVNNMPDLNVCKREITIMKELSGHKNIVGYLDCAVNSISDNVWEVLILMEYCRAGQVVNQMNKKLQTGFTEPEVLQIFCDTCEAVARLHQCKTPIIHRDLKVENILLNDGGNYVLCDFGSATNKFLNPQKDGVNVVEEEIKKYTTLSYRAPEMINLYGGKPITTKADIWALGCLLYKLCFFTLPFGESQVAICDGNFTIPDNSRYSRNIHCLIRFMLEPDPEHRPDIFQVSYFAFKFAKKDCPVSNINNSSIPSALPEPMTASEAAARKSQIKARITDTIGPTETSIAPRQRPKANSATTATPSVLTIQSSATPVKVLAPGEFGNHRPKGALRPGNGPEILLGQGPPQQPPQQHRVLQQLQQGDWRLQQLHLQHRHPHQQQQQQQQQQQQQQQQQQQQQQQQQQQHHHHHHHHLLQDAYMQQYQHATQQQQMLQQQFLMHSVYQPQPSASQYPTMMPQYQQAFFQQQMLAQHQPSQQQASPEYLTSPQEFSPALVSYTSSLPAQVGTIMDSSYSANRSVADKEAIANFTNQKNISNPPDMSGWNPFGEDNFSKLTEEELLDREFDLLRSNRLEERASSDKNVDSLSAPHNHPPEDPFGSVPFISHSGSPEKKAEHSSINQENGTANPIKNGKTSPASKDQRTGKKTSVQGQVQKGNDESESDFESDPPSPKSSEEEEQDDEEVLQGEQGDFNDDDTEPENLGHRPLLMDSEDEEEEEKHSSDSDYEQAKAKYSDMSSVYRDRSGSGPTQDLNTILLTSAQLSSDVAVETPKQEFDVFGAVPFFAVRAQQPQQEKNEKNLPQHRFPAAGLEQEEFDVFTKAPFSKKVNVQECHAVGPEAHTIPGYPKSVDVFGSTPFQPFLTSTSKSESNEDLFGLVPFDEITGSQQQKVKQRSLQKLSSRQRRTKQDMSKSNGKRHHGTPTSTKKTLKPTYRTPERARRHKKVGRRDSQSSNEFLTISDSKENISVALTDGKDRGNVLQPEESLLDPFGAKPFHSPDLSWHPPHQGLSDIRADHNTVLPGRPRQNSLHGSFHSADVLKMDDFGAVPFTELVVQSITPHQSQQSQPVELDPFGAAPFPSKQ
ICK (human), sequence (Q9UPZ9 whole entry, looked up): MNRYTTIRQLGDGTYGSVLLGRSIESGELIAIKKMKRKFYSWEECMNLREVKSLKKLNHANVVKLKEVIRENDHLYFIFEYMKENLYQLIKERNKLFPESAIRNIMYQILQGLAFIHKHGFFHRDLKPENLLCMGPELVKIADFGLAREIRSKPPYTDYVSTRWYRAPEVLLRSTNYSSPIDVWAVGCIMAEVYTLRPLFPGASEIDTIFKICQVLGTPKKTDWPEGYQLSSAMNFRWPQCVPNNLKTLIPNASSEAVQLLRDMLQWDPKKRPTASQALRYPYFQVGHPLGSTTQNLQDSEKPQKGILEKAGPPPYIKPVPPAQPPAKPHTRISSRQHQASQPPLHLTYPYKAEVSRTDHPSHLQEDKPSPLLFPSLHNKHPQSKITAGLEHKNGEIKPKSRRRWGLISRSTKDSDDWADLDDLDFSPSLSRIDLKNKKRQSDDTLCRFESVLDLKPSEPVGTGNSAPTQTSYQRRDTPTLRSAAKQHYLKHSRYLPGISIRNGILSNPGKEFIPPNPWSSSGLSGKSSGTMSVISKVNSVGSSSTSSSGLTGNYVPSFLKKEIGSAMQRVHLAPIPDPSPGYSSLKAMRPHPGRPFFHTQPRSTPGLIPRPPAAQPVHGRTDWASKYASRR
TGFBR1 (human), sequence (P36897 whole entry, looked up): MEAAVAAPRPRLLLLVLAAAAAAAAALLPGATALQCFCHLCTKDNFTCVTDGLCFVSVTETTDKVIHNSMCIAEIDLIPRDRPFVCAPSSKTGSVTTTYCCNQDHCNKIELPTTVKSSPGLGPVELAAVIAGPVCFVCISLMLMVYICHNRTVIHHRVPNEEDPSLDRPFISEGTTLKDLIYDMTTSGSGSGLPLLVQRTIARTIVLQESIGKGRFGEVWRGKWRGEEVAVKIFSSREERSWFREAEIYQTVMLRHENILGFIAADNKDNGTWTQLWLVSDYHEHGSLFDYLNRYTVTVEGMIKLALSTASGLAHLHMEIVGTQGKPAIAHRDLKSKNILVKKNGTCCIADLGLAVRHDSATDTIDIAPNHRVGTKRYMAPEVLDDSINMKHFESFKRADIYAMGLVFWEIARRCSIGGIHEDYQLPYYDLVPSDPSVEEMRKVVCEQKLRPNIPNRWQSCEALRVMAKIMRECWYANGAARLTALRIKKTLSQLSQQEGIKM
OXSR1 (human), sequence (O95747 whole entry, looked up): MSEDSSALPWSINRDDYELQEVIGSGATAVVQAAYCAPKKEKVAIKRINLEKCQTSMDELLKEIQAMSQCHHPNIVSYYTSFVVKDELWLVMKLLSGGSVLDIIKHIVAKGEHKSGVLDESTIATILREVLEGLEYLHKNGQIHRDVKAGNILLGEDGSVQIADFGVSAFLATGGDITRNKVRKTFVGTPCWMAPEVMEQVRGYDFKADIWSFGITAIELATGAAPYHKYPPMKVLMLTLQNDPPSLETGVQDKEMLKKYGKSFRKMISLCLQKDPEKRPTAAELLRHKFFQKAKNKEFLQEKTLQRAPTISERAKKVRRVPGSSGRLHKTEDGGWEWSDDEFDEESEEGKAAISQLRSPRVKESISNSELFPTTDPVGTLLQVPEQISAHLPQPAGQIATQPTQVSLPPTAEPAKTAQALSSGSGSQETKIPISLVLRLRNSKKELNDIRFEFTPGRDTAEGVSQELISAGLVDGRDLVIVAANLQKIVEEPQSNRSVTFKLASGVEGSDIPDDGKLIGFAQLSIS
STK36 (human), sequence (Q9NRP7 whole entry, looked up): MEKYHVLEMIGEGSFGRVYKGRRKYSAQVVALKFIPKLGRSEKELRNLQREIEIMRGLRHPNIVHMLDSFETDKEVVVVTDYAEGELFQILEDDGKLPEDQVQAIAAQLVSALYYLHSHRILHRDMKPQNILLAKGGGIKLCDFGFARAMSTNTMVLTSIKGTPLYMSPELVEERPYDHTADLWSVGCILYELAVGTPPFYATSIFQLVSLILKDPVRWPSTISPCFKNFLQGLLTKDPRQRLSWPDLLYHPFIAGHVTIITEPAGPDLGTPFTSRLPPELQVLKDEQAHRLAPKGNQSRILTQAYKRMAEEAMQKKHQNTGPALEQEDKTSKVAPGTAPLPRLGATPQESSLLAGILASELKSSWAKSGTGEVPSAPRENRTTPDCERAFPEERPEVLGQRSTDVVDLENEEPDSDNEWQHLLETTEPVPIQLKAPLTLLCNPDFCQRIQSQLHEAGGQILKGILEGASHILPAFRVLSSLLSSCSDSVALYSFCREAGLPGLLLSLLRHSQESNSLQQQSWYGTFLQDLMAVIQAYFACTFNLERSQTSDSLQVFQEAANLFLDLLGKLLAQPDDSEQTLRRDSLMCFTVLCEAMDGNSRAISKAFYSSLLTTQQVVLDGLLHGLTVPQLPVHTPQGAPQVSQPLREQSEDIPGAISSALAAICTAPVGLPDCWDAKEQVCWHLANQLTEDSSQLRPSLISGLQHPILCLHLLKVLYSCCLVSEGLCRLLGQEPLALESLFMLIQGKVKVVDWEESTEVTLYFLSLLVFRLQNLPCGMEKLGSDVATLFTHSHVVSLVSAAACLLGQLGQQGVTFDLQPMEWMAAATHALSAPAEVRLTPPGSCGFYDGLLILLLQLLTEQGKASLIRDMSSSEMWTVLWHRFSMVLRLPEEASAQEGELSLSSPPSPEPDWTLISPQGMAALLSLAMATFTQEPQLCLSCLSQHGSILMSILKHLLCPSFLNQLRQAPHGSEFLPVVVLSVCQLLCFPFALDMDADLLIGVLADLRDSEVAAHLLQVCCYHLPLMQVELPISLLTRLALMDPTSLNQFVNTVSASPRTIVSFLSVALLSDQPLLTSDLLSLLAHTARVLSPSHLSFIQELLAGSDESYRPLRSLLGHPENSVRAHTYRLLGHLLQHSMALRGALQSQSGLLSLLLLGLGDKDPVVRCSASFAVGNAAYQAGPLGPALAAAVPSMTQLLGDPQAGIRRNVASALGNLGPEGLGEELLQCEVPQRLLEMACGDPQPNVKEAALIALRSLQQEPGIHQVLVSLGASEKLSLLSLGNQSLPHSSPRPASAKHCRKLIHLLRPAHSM
CDK18 (human), sequence (Q07002 whole entry, looked up): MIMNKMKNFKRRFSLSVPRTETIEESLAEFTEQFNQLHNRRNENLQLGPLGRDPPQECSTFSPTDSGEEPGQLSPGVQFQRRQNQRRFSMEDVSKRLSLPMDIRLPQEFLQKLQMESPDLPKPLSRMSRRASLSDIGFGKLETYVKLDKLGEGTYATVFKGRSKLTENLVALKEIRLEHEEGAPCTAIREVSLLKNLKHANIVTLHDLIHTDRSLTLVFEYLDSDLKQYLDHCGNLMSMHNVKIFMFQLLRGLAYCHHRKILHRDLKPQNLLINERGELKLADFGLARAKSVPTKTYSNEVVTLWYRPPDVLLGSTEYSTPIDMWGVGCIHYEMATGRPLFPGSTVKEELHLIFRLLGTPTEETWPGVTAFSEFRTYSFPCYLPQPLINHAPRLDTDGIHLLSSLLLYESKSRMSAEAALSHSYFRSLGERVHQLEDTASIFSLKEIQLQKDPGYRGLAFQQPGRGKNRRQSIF
MAPK10 (human), sequence (P53779 whole entry, looked up): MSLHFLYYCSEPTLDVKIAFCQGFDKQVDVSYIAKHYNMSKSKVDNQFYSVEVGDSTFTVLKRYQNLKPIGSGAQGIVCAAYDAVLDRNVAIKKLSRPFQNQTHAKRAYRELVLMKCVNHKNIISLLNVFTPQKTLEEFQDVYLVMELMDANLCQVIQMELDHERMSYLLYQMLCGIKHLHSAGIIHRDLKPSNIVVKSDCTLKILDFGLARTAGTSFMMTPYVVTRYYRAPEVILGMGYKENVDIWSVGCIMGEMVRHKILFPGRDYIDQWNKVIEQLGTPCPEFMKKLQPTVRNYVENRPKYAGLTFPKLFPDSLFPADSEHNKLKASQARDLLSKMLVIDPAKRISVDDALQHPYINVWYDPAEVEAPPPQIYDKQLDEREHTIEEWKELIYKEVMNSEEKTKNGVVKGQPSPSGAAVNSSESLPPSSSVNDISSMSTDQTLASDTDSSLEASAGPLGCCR

Compound: CN(C)C/C=C/C(=O)Nc1cccc(C(=O)Nc2ccc(Nc3nccc(/C(C#N)=C4\Nc5ccccc5S4)n3)cc2)c1
- kinase still bound, per cent of control [1]: 51%
- kinase still bound, per cent of control [2]: 76%
- kinase still bound, per cent of control [3]: 100%
- kinase still bound, per cent of control [4]: 88%
- kinase still bound, per cent of control [5]: 100%
- kinase still bound, per cent of control [6]: 100%
- kinase still bound, per cent of control [7]: 64%
- kinase still bound, per cent of control [8]: 96%
- kinase still bound, per cent of control [9]: 82%
- kinase still bound, per cent of control [10]: 100%
- kinase still bound, per cent of control [11]: 100%
- kinase still bound, per cent of control [12]: 78%
- kinase still bound, per cent of control [13]: 100%
- kinase still bound, per cent of control [14]: 94%
- kinase still bound, per cent of control [15]: 74%
- kinase still bound, per cent of control [16]: 100%
- kinase still bound, per cent of control [17]: 60%
- kinase still bound, per cent of control [18]: 100%
- kinase still bound, per cent of control [19]: 85%
- kinase still bound, per cent of control [20]: 100%
- kinase still bound, per cent of control [21]: 100%
- kinase still bound, per cent of control [22]: 0.05%
- kinase still bound, per cent of control [23]: 70%
- kinase still bound, per cent of control [24]: 100%
- kinase still bound, per cent of control [25]: 100%
- kinase still bound, per cent of control [26]: 100%
- kinase still bound, per cent of control [27]: 100%
- kinase still bound, per cent of control [28]: 51%
- kinase still bound, per cent of control [29]: 100%
- kinase still bound, per cent of control [30]: 100%
- kinase still bound, per cent of control [31]: 53%
- kinase still bound, per cent of control [32]: 96%
- kinase still bound, per cent of control [33]: 65%
- kinase still bound, per cent of control [34]: 100%
- kinase still bound, per cent of control [35]: 100%
- kinase still bound, per cent of control [36]: 100%
- kinase still bound, per cent of control [37]: 100%
- kinase still bound, per cent of control [38]: 82%
- kinase still bound, per cent of control [39]: 95%
- kinase still bound, per cent of control [40]: 97%
- kinase still bound, per cent of control [41]: 15%
- kinase still bound, per cent of control [42]: 100%
- kinase still bound, per cent of control [43]: 100%

Compound: CN(C)C/C=C/C(=O)Nc1cccc(C(=O)Nc2ccc(Nc3nccc(-c4cccnc4)n3)cc2)c1
- pKd [1]: 6.72
- kinase still bound, per cent of control [1]: 3.8%
- kinase still bound, per cent of control [2]: 76%
- kinase still bound, per cent of control [3]: 100%
- kinase still bound, per cent of control [4]: 73%
- kinase still bound, per cent of control [5]: 43%
- kinase still bound, per cent of control [6]: 100%
- kinase still bound, per cent of control [7]: 16%
- kinase still bound, per cent of control [8]: 77%
- kinase still bound, per cent of control [9]: 52%
- kinase still bound, per cent of control [10]: 100%
- kinase still bound, per cent of control [11]: 100%
- kinase still bound, per cent of control [12]: 90%
- kinase still bound, per cent of control [13]: 100%
- kinase still bound, per cent of control [14]: 87%
- kinase still bound, per cent of control [15]: 100%
- kinase still bound, per cent of control [16]: 100%
- kinase still bound, per cent of control [17]: 9.2%
- pKd [18]: 7.27
- kinase still bound, per cent of control [18]: 3.4%
- kinase still bound, per cent of control [19]: 85%
- kinase still bound, per cent of control [20]: 100%
- kinase still bound, per cent of control [21]: 78%
- kinase still bound, per cent of control [22]: 0%
- kinase still bound, per cent of control [23]: 94%
- kinase still bound, per cent of control [24]: 81%
- kinase still bound, per cent of control [25]: 77%
- kinase still bound, per cent of control [26]: 48%
- kinase still bound, per cent of control [27]: 96%
- kinase still bound, per cent of control [28]: 21%
- kinase still bound, per cent of control [29]: 22%
- kinase still bound, per cent of control [30]: 100%
- kinase still bound, per cent of control [31]: 69%
- kinase still bound, per cent of control [32]: 100%
- kinase still bound, per cent of control [33]: 74%
- kinase still bound, per cent of control [34]: 100%
- kinase still bound, per cent of control [35]: 92%
- kinase still bound, per cent of control [36]: 88%
- kinase still bound, per cent of control [37]: 87%
- kinase still bound, per cent of control [38]: 28%
- kinase still bound, per cent of control [39]: 30%
- kinase still bound, per cent of control [40]: 86%
- kinase still bound, per cent of control [41]: 67%
- kinase still bound, per cent of control [42]: 97%
- kinase still bound, per cent of control [43]: 100%
